We go through 6 compounds from patent US20110059886A1, “HCV NS3-NS4A Protease Inhibition” (priority 2004, published 2011).

The target in data set [1] is RET-S1 fluorescent peptide (AnaSpec, San Jose, Calif.).
Data set [2] concerns the target NS5AB peptide substrate, based on the NS5A/NS5B cleavage site for genotype 1a HCV.
Data set [3] concerns CC[C@H](NC(=O)[C@@H](NC(=O)[C@@H](NC(=O)[C@H](CC(=O)O)NC(=O)[C@@H](N)CCC(=O)O)C(C)C)C(C)C)C(=O)N[C@@H](CS)C(=O)N[C@@H](CO)C(=O)N[C@@H](CCSC)C(=O)N[C@@H](CO)C(=O)N[C@@H](Cc1ccc(O)cc1)C(=O)O. Kind of data set: purified protein, by the assay type. The settings on record: other: genotype 1a; NS5AB substrate; pH 7.8; 40.0 °C.
For data set [4], the target named is T1, HCV NS3 protease genotype 2a (Hepatitis C virus genotype 2a, UniProt P26660, L1043K/T1046A/V1183I).
T1 construct: DNA fragment encoding residues Ala^1-Ser^181 of several isolates of genotype 2a or 2b; hexa-histidine (C); made in house; host or cells: E. coli BL21/DE3 pLysS
The data set can be described thus: Kinetic parameters of NS5AB substrate, HPLC peptide cleavage assay. The format is biochemical. The method, then:
(§1) Peptide sequences are shown below.
(§2) For determination of the kinetic parameters Km and Vmax, the NS5AB substrate was varied between 3 μM and 200 μM. The ratio of the product peak area to the reaction time yielded a rate of enzyme catalyzed hydrolysis. These rate vs. substrate concentration data points were fit to the Michaelis-Menten equation using non-linear regression. The value of kcat was determined from Vmax using the nominal protease concentration and a fully cleaved substrate peptide as an instrument calibration standard.

Data set [5] addresses T2, HCV NS3 protease genotype 3a (Hepatitis C virus genotype 3a, UniProt Q81258, I1084M/L1045K/S1134A/S1198A).
T2 construct: DNA fragment encoding residues Ala^1-Ser^181 of several isolates of genotype 2a or 2b; hexa-histidine (C); made in house; host or cells: E. coli BL21/DE3 pLysS
The data set is described as above. The data set is classed as biochemical. As for the experimental part: as §1, §2

Data set [6] deals with Cells containing hepatitis C virus (HCV) replicon. Kind of data set: HCV replicon cell assay. The format is cell-based. The settings on record: 48 h, read-out: (concentration at which 50% inhibition of HCV RNA level is observed). As for the experimental part:
Cells were obtained according to the method of Lohmannn et al., Science, 285, pp. 110-113 (1999). Cells containing hepatitis C virus (HCV) replicon were maintained in DMEM containing 10% fetal bovine serum (FBS), 0.25 mg per ml of G418, with appropriate supplements (media A).
On day 1, replicon cell monolayer was treated with a trypsin:EDTA mixture, removed, and then media A was diluted into a final concentration of 100,000 cells per ml wit. 10,000 cells in 100 ul were plated into each well of a 96-well tissue culture plate, and cultured overnight in a tissue culture incubator at 37° C.
On day 2, compounds (in 100% DMSO) were serially diluted into DMEM containing 2% FBS, 0.5% DMSO, with appropriate supplements (media B). The final concentration of DMSO was maintained at 0.5% throughout the dilution series. […]
A Taqman real-time RT-PCR quantification assay was set up with two sets of specific primers and probe. […] Total RNA extractants from treated HCV replicon cells was added to the PCR reactions for quantification of both HCV and BVDV RNA in the same PCR well. […] The level of HCV RNA in each well was calculated according to a standard curve run in the same PCR plate. The percentage of inhibition or decrease of HCV RNA level due to compound treatment was calculated using the DMSO or no compound control as 0% of inhibition. […]
(In general: In antiviral work, replicon cells carry a viral genome segment that copies itself.)

Data set [7] concerns the target T1, HCV NS3 protease genotype 2a. The data set can be described thus: Inhibition constant from steady-state rates of progress curves. To be noted: steady-state portion of progress curves, Morrison fit, read-out: Ki using steady-state rates. The format is biochemical. The method, then:
(§3) The rates of onset of slow binding inhibition were determined by a modification of the method for measurement of progress curves described by Narjes et al. [Narjes F. et al., Biochemistry 39, pp. 1849-1861 (2000)]. […] The reaction was initiated by addition of an aliquot of pre-heated enzyme stock to the compound-substrate mixture to yield final concentrations of 6 to 12 μM RET-S1 and 0.5 nM to 4 nM HCV NS3 protease. […] T., Adv. Enzymol. Relat. Areas Mol. Biol. 61, pp. 201-301 (1988)].
(§4) Biophys. Acta. 874, pp. 44-53 (1986)].

Data set [8] concerns the target T2, HCV NS3 protease genotype 3a. The data set is described as above. The format is biochemical. To be noted: steady-state portion of progress curves, Morrison fit, read-out: Ki using steady-state rates. As for the experimental part:
as §3, §4

Data set [9] addresses T1, HCV NS3 protease genotype 2a. The data set can be described thus: HPLC peptide cleavage assay, apparent Ki. The data set is classed as biochemical. The settings on record: 15 min preincubation, NS5AB at Km.
Text: as §1, §4

Data set [10] has as its target T2, HCV NS3 protease genotype 3a. Kind of data set: HPLC peptide cleavage assay, apparent Ki. The format is biochemical. The settings on record: 15 min preincubation, NS5AB at Km.
Text: as §1, §4

Data set [11] shares this target. The data set can be described thus: Fluorescence peptide assay, potency with extended incubation. The data set is classed as biochemical. To be noted: IC50 after extended preincubation taken as Ki of tightly bound complex, read-out: Ki following extended incubation.
For data set [12], the target named is T1, HCV NS3 protease genotype 2a. The data set can be described thus: Progress curve analysis of slow binding inhibition. The data set is classed as biochemical.
Text: (§5) F(t)=Vs×t+(Vi−Vs)×(1−exp (−kobs×t))/kobs+C Equation 1:
(§6) kobs=koff+(kon×[I])/(1+[S]/Km) Equation 2:
Data set [13] concerns the target NS3-4A serine protease (Hepatitis C virus genotype 1a, UniProt P27958). Kind of data set: Enzyme assays with KK-4A peptide and FRET substrate, mode of binding.
The target in data set [14] is T1, HCV NS3 protease genotype 2a. The data set can be described thus: Fluorescence peptide assay, potency with extended incubation. The format is biochemical. To be noted: IC50 after extended preincubation taken as Ki of tightly bound complex, read-out: Ki following extended incubation.
The target in data set [15] is T2, HCV NS3 protease genotype 3a. The data set can be described thus: Progress curve analysis of slow binding inhibition. The data set is classed as biochemical.
Text: as §5, §6
In data set [16] the target is NS3/4A protease. The settings on record: WO 02/018369, cited from earlier work.

Like-named read-outs stand apart in the source and are kept apart here. Non-standard residues stand in square brackets, D forms with d. Residues, ends and D or L forms follow the SMILES beside them. Abu = CC[C@H](N)C(=O)O

T2 sequence (Q81258 1033-1213, looked up, stated change not applied, other chains not shown): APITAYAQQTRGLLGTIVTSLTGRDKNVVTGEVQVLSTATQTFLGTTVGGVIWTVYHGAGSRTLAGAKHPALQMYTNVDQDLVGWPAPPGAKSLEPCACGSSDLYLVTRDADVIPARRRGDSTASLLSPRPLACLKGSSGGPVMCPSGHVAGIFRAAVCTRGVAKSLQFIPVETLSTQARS
Sequence of NS3-4A serine protease (P27958 1027-1208, other chains not shown): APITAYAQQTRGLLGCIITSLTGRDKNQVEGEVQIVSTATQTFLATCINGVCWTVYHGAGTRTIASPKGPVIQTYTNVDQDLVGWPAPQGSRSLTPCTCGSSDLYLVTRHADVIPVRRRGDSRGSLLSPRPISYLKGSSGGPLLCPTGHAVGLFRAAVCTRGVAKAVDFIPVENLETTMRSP

With HCV NS3 protease, genotype 1a (enzyme), the catalytic efficiency (kcat/Km) (in general, the turnover number divided by the Michaelis constant) in data set [1] is 170000 M⁻¹ s⁻¹; in data set [2] it was 30000 M⁻¹ s⁻¹.
As for “HCV NS3 serine protease domain, genotype 3a consensus sequence (enzyme)”, the figures for the specificity constant (kcat/Km) in data set [1] and in [2] were 22000 M⁻¹ s⁻¹ and 5200 M⁻¹ s⁻¹, respectively.
On to “HCV NS3 protease genotype 1a (Hepatitis C virus (isolate H77))”, for which, in [3], the Michaelis-Menten constant (Km) (as a rule, the substrate concentration at which the rate is half of its maximum) came out at 25 µM and the specificity constant (kcat/Km) came out at 30000 M⁻¹ s⁻¹.
For the compound `CC[C@H](NC(=O)[C@@H](NC(=O)[C@@H](NC(=O)[C@H](CC(=O)O)NC(=O)[C@@H](N)CCC(=O)O)C(C)C)C(C)C)C(=O)N[C@@H](CS)C(=O)N[C@@H](CO)C(=O)N[C@@H](CCSC)C(=O)N[C@@H](CO)C(=O)N[C@@H](Cc1ccc(O)cc1)C(=O)O` [NS5AB, NH2-EDVV-(alpha)Abu-CSMSY-COOH] (H-EDVV[Abu]CSMSY-OH), the Km is 11 µM in data set [4] and 70 µM in data set [5].
For the compound `CCC[C@H](NC(=O)[C@@H]1[C@H]2CCC[C@H]2CN1C(=O)[C@@H](NC(=O)[C@@H](NC(=O)c1cnccn1)C1CCCCC1)C(C)(C)C)C(=O)C(=O)NC1CC1` [VX-950], the IC50 in data set [6] is 354 nM. The Ki turned out to be 32 nM in [7]; 270 nM in data set [8]; 40 nM in [9]; 650 nM in [10]; 460 nM in data set [11]; 67 nM in [12]. Further, the Ki was 37 nM in data set [14], 440 nM in [15], 8 nM in data set [16] (read-out: Ki) and 3 nM in data set [16] (read-out: steady state binding constant (ki*)). In data set [13], the “mode of binding to the NS3-4A serine protease” value is “reversible, covalent, competitive, tight and slow binding”.
On to “HCV NS3 serine protease domain, genotype 2a consensus sequence (enzyme)”, for which the specificity constant (kcat/Km) in data set [1] was found to be 65000 M⁻¹ s⁻¹; in data set [2], 31000 M⁻¹ s⁻¹.
